The target of the assay is T1, HDAC2 Human recombinant C-terminal FLAG-tag (Homo sapiens, UniProt Q92769).
T1 construct: FLAG (C); purchased BPS Bioscience 50052
Put plainly: Measurement of HDAC2 enzyme inhibitory activity (HTRF). Format: biochemical. To be noted: recombinant HDAC2, H3K9ac peptide, 3 hours room temperature; read-out: HDAC2 IC50. The method, then:
Test Example 1: Measurement of HDAC2 Enzyme Inhibitory Activity
The HDAC2 enzyme inhibitory activity was measured by the method described in the following test example.
To each well of a 384-well plate (Corning, 4514), DMSO solution of the test compound was dispensed at 50 nL/well from a final concentration of 99 μM to 8 points (n=2) in the 3-fold dilution series using Echo555 (Beckman Coulter). 2.5 μl of 0.005 mg/mL recombinant enzyme HDAC2 (HDAC2 Human recombinant C-terminal FLAG-tag, BPS Bioscience, 50052) was added to each well, 2.5 μl of 0.6 μM H3K9ac peptide (Lys(Ac)9-Histone H3 (1-21)-GGK(Biotin), AnaSpec, 64361) was added, mixed, and reacted in a wet box at room temperature for 3 hours. 50 mM Tris HCL pH8.0, 137 mM sodium chloride, 2.7 mM potassium chloride, 1 mM magnesium chloride, 0.01% Tween20, and 0.1% BSA which were diluted with ultrapure water were used as a reaction buffer at this time. After the reaction, 5 μL of 10 μM SAHA (suberoylanilide hydroxamic acid) as a reaction terminator and the 5 μL of a mixture of 2.5 ng of H3K9me0 antibody (ActiveMotif, 61399) labeled in-house with europium cryptate (Cisbio, 65EUSABA) and 125 nM streptavidin-XL665 (Cisbio, 610SAXLA) as an HTRF (time-resolved fluorescence) reagent were added to each well, mixed, and allowed to stand in a wet box at room temperature for reaction. A detection buffer used at this time was 50 mM Tris HCL pH 8.0, 0.8 M potassium fluoride, and 0.1% BSA which were diluted with ultrapure water. After reacting for 2 hours or more, HTRF was measured using a multi-plate reader such as SpectraMax Paradigm (MOLECULAR DEVICE) or RUBYstar (BMG LABTECH). Ratio (665 nm/615-620 nm×10000) was calculated from the fluorescence values of two wavelengths, 615-620 nm and 665 nm, which were excited at 320-340 nm, and the energy transition was obtained.
In general terms: TR-FRET usually uses a lanthanide donor and a delayed reading to cut background.

T1 sequence (Q92769 whole entry): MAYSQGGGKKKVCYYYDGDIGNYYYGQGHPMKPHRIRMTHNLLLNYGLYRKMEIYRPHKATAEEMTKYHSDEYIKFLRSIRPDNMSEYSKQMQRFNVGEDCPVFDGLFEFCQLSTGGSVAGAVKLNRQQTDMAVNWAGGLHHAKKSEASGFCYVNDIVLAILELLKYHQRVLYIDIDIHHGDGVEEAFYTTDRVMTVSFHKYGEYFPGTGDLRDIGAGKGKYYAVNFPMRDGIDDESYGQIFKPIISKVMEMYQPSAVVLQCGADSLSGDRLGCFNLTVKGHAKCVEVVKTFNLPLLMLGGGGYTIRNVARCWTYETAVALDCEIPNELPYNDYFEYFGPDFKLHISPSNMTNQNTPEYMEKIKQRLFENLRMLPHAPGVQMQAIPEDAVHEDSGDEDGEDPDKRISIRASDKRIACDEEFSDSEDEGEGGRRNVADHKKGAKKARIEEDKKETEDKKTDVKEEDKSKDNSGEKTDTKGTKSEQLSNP

Regarding `Nc1ccc(-c2cncs2)cc1NC(=O)c1cnc(OCF)cn1` [Compound I-100], the IC50 (as a rule, the point on the concentration scale where inhibition reaches its midpoint) amounted to 100 nM.

As for `Nc1ccc(-c2cncs2)cc1NC(=O)c1ccc(C2CC2)cn1` [Compound I-101], the IC50 came to 92 nM. As for `Nc1ccc(-c2ccc(F)nc2)cc1NC(=O)c1ccc(CN2CCCC2=O)cn1` [Compound I-104], the figure is 85 nM; as for `Nc1ccc(-c2ccc(F)nc2)cc1NC(=O)c1ccc(CN2CCCCC2=O)cn1` [Compound I-108], 84 nM. `N#Cc1ccnc(C(=O)Nc2cc(-c3cncs3)ccc2N)c1` [Compound I-109]: the IC50 is 190 nM. Under `Nc1ccc(-c2ccc(F)nc2)cc1NC(=O)c1ccc(C2CC2)cn1` [Compound I-111] stands 150 nM; under `Nc1ccc(-c2ccc(F)nc2)cc1NC(=O)c1ccccn1` [Compound I-113], 320 nM. Under `Nc1ccc(-c2ccc(F)nc2)cc1NC(=O)c1cnccn1` [Compound I-114] stands 260 nM. Under `Nc1ccc(-c2ccc(F)nc2)cc1NC(=O)c1cccnn1` [Compound I-115] stands 440 nM. Take `COc1cnc(C(=O)Nc2cc(-c3ccc(F)nc3)ccc2N)cn1` [Compound I-120]: the IC50 worked out at 240 nM. In the case of `Cc1cnc(C(=O)Nc2cc(-c3ccc(F)nc3)ccc2N)cn1` [Compound I-123], the IC50 was found to be 140 nM.

Turning to `Nc1ccc(-c2ccc(F)nc2)cc1NC(=O)c1cnc(-n2cncn2)cn1` [Compound I-128], the IC50 was determined as 180 nM. Take `C=Cc1ccc(C(=O)Nc2cc(-c3ccc(F)nc3)ccc2N)nc1` [Compound I-131]: the IC50 was 180 nM. As for `Cc1nnc(-c2ccc(C(=O)Nc3cc(-c4ccc(F)nc4)ccc3N)nc2)o1` [Compound I-133], the figure is 110 nM; as for `Nc1ccc(-c2ccc(F)nc2)cc1NC(=O)c1cnc(CF)cn1` [Compound I-134], 210 nM. Under `Nc1ccc(-c2ccc(F)nc2)cc1NC(=O)c1ccc(OCC(F)(F)F)cn1` [Compound I-135] stands 470 nM. As for `Cc1cnc(C(=O)Nc2cc(-c3cnn(C)c3)ccc2N)cn1` [Compound I-138], the figure is 200 nM; as for `COc1ccc(C(=O)Nc2cc(-c3cnn(C)c3)ccc2N)nc1` [Compound I-140], 220 nM. As for `Nc1ccc(-c2ccc(F)nc2)cc1NC(=O)c1ccc(OC(F)F)cn1` [Compound I-143], the IC50 worked out at 390 nM.

As for `Nc1ccc(-c2ccc(F)nc2)cc1NC(=O)c1cnc(C(F)F)cn1` [Compound I-145], the IC50 is 340 nM. As for `Cn1cc(-c2ccc(N)c(NC(=O)c3cnc(OC(F)F)cn3)c2)cn1` [Compound I-146], the figure is 380 nM; as for `Cn1cc(-c2ccc(N)c(NC(=O)c3cnc(CF)cn3)c2)cn1` [Compound I-147], 290 nM; as for `COc1ccnc(C(=O)Nc2cc(-c3ccc(F)nc3)ccc2N)c1` [Compound I-150], 310 nM. Regarding `Nc1ccc(-c2ccc(F)nc2)cc1NC(=O)c1cnc(OCC(F)F)cn1` [Compound I-151], the IC50 came out at 220 nM. In the case of `CC(C)c1ccc(C(=O)Nc2cc(-c3cnn(C)c3)ccc2N)nc1` [Compound I-153], the IC50 was 210 nM. Under `Cc1ccc(C(=O)Nc2cc(-c3ccc(F)nc3)ccc2N)nc1` [Compound I-154] stands 120 nM; under `Cc1ccc(C(=O)Nc2cc(-c3cnn(C)c3)ccc2N)nc1` [Compound I-155], 220 nM. Under `CC(C)Oc1ccc(C(=O)Nc2cc(-c3ccc(F)nc3)ccc2N)nc1` [Compound I-162] stands 200 nM. As for `CC(C)Oc1ccc(C(=O)Nc2cc(-c3cnn(C)c3)ccc2N)nc1` [Compound I-163], the figure is 210 nM; as for `CCOc1ccc(C(=O)Nc2cc(-c3ccc(F)nc3)ccc2N)nc1` [Compound I-164], 210 nM; as for `CCOc1ccc(C(=O)Nc2cc(-c3cnn(C)c3)ccc2N)nc1` [Compound I-165], 200 nM. In the case of `Cc1cnc(C(=O)Nc2nc(-n3cccc3)ccc2N)cn1` [Compound I-171], the 50% inhibitory concentration (IC50) turned out to be 430 nM. Turning to `CCc1ccc(C(=O)Nc2cc(-c3ccc(F)nc3)ccc2N)nc1` [Compound I-174], the IC50 is 120 nM. Under `CCc1ccc(C(=O)Nc2cc(-c3cnn(C)c3)ccc2N)nc1` [Compound I-175] stands 170 nM; under `CN(C)c1ccc(C(=O)Nc2cc(-c3ccc(F)nc3)ccc2N)nc1` [Compound I-176], 79 nM; under `CN(C)c1cnc(C(=O)Nc2cc(-c3ccc(F)nc3)ccc2N)cn1` [Compound I-178], 46 nM. Under `COCCOc1ccc(C(=O)Nc2cc(-c3cnn(C)c3)ccc2N)nc1` [Compound I-180] stands 210 nM.

`CC(C)c1ccc(C(=O)Nc2cc(-c3ccc(F)nc3)ccc2N)nc1` [Compound I-181]: the IC50 came to 140 nM. Under `COCCOc1ccc(C(=O)Nc2nc(-n3cccc3)ccc2N)nc1` [Compound I-182] stands 350 nM. Under `Nc1ccc(-c2ccc(F)nc2)cc1NC(=O)c1ccc2c(n1)OCO2` [Compound I-183] stands 48 nM; under `Nc1ccc(-c2ccc(F)nc2)cc1NC(=O)c1ccc2c(n1)OCC(=O)N2` [Compound I-184], 49 nM; under `COC(=O)c1ccc(C(=O)Nc2cc(-c3ccc(F)nc3)ccc2N)nc1` [Compound I-185], 140 nM. Under `Nc1ccc(-c2ccc(F)nc2)cc1NC(=O)c1cc(F)ccn1` [Compound I-186] stands 490 nM; under `CC(C)(C)c1ccc(C(=O)Nc2cc(-c3ccc(F)nc3)ccc2N)nc1` [Compound I-191], 240 nM. On to `Nc1ccc(-c2ccc(F)nc2)cc1NC(=O)c1ccc(CO)cn1` [Compound I-192], for which the IC50 is 220 nM. For the compound `CC(C)(O)c1ccc(C(=O)Nc2cc(-c3ccc(F)nc3)ccc2N)nc1` [Compound I-193], the IC50 came out at 170 nM. As for `Nc1ccc(-c2cncs2)cc1NC(=O)c1noc2ccccc12` [Compound I-195], the IC50 turned out to be 290 nM. Under `Cn1cc(-c2cc(C(=O)Nc3cc(-c4cncs4)ccc3N)no2)cn1` [Compound I-196] stands 55 nM; under `Cn1cc(-c2ccc(N)c(NC(=O)c3cc(-c4cnn(C)c4)on3)c2)cn1` [Compound I-197], 240 nM. Consider `Cn1cccc1-c1cc(C(=O)Nc2cc(-c3cncs3)ccc2N)no1` [Compound I-199], for which the IC50 was 200 nM.

Take `Cn1cc(-c2ccc(N)c(NC(=O)c3ccc(C(C)(C)C)cn3)c2)cn1` [Compound I-201]: the IC50 came to 260 nM. Under `CN(C)c1cnc(C(=O)Nc2cc(-c3cnco3)ccc2N)cn1` [Compound I-202] stands 60 nM; under `CC(C)(C)c1cnc(C(=O)Nc2cc(-c3ccc(F)nc3)ccc2N)cn1` [Compound I-203], 240 nM; under `Cn1cc(-c2ccc(N)c(NC(=O)c3cnc(C(C)(C)C)cn3)c2)cn1` [Compound I-204], 340 nM.

In the case of `CN(C)c1cnc(C(=O)Nc2cc(-c3cncs3)ccc2N)cn1` [Compound I-205], the IC50 came out at 60 nM.

Turning to `Nc1ccc(-n2cccc2)nc1NC(=O)c1ccc(N2CCOCC2)cn1` [Compound I-206], the IC50 was found to be 500 nM.

Turning to `COCc1ccc(C(=O)Nc2cc(-c3cnn(C)c3)ccc2N)nc1` [Compound I-207], the IC50 is 250 nM. Turning to `COCc1ccc(C(=O)Nc2cc(-c3ccc(F)nc3)ccc2N)nc1` [Compound I-208], the IC50 amounted to 150 nM.

Values taken from patent publication US20230119479A1, “A HISTONE DEACETYLASE INHIBITOR HAVING A NITROGEN-CONTAINING AROMATIC HETEROCYCLYL GROUP” (SHIONOGI & CO., LTD., priority 2019, published 2023).
